Laboratory results from patent US20230241188A1 (priority 2020, published 2023).

System: spike mutant (ΔS) SARS-CoV-2 strain (EPI_ISL_578177)
Type: cell-based

CC(=O)N[C@@H](CS)C(=O)O [Acetylcysteine, acetylcysteine] was tested, and the “viral inhibition (CPE, optical and Neutral Red cell staining)” value was “no viral inhibition”.
